Laboratory results: the METLIN SMRT retention time set (Domingo-Almenara et al. 2019)

experiment: gradient 5% acetonitrile 3 min, to 50% in 2 min, to 85% in 15 min, held 3 min, 100 µL/min; settings: column: Zorbax Extend-C18 2.1 x 50 mm; eluents: water / acetonitrile, 0.1% formic acid
Procedure, shortened: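 Over 3 months, pure standards in mixtures of ~100 molecules were run by HPLC coupled to a quadrupole time-of-flight mass spectrometer in positive and negative ionization mode. The column was a Zorbax Extend-C18 (2.1 × 50 mm, 1.8 μm) at 100 μL/min, eluted with water and acetonitrile each holding 0.1% formic acid, with 40 μL dead and 900 μL dwell volumes. Retention time was determined from adduct peaks chosen by software and checked manually.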

| SMILES | RP-LC retention time [s] |
| --- | --- |
| COc1cc(CNS(=O)(=O)c2cccc(-c3nc(-c4ccccc4)no3)c2)cc(OC)c1OC | 1040 |
| COCC(=O)N1CCCN(c2cc(=O)n(C(C)C)c(=O)n2C(C)C)CC1 | 678 |
| COCCC(=O)N1CCC2(CCC2NC(=O)COC)CC1 (stereo not given) | 594 |
| Cc1nc(NS(=O)(=O)CCOc2ccc(F)cc2)sc1C | 710 |
| CCOc1ccc(-c2nc(CN(c3ccccc3)S(=O)(=O)c3cccs3)c(C)o2)cc1 | 1220 |
| Cc1ccc(C(=O)N2CCc3sc(C(=O)N4CCC5(CC4)OCCO5)cc3C2)cc1 | 793 |
| Cc1ccc(-c2noc(-c3nn(-c4cccc(F)c4)ccc3=O)n2)cc1 | 956 |
| COc1cccc(OC)c1OCCNCC1COc2ccccc2O1 (stereo not given) | 767 |
| Cc1cc(NC(=O)CCCS(=O)(=O)c2ccc(Cl)cc2)n(C)n1 | 648 |
| CCc1ccc2nc(NC3=NCN(CCCOC)CN3)nc(C)c2c1 | 694 |
| CCN(CC)CCNC(=O)c1ccc2cnn(Cc3ccc(F)cc3)c2c1 | 650 |
| O=C1CCc2cc(S(=O)(=O)NCCCc3ccccc3)cc3c2N1CCC3 | 879 |
| O=C(Nc1ccc(Cl)cn1)C(=O)c1cccn1Cc1ccccc1 | 1180 |
| CCOC(=O)c1c(C)[nH]c(C(=O)N2CCC(CC(=O)NCCN(C)C)CC2)c1C | 569 |
| O=c1n(Cc2cccc(F)c2)nc2ccc(S(=O)(=O)N3CCc4ccccc4C3)cn12 | 987 |
| O=C(NCCc1ccc(Cl)cc1)c1nnc(-c2ccc(S(=O)(=O)N3CCCC3)cc2)o1 | 1010 |
| O=c1c2c([nH]c3ccc(Cl)cc13)CCN(Cc1ccc(F)cc1)C2 | 620 |
| O=C(CN1CCN(Cc2ccc(F)cc2)C1=O)NCC1CCCCC1 | 854 |
| O=C(Cn1nc2n(c1=O)CCCCC2)Nc1ccc(F)cc1 | 666 |
| COc1cccc(-c2ccc(=O)n(CCCC(=O)Nc3cccc4nsnc34)n2)c1 | 764 |
| CCOC(=O)c1c(S(=O)(=O)N2CCC(C(=O)NCc3cccs3)CC2)c(C)n(C)c1C | 774 |
| CN1C(=O)c2cc(C(=O)NCCCN3CCCC3)nn2CC1(C)C(=O)NCc1ccc(F)cc1 (stereo not given) | 585 |
| Cc1[nH]c(=O)[nH]c(=O)c1S(=O)(=O)NC1CCCC1 | 620 |
| NS(=O)(=O)C#Cc1ccccc1 | 729 |

| SMILES | RP-LC retention time [s] |
| --- | --- |
| CCOCCCNC(=O)C1CCCN(C(=O)c2[nH]c(C)cc2C)C1 (stereo not given) | 678 |
| CCn1cc(CCNC(=O)CC(C)C)c2cccnc21 | 656 |
| CCN(CC)CCCNC(=O)c1ccc(-c2ccc3c(c2)CCN3C(C)=O)cc1 | 612 |
| Cc1ncoc1C(=O)N1CCC(N2C(=O)C(OCC3CC3)C23CCOCC3)CC1 (stereo not given) | 634 |
| CCOc1cc(=O)n2c(c1C(=O)NC1CCCCC1)CCCCC2 | 734 |
| CC1(C(=O)NCc2ccc(F)cc2)CCCN(C(=O)NC2COc3ccccc3C2)C1 (stereo not given) | 875 |
| N#CCN(c1ccc2c(c1)OCCO2)S(=O)(=O)c1ccc2nncn2c1 | 690 |
| CCOCC(=O)N1CCCC1CCc1ncc(C)n1C(C)C (stereo not given) | 574 |
| CCC(C)Nc1nc(-c2ccc(C)cc2)nnc1C (stereo not given) | 719 |
| O=C(Cn1cnc2c(-c3ccc(F)cc3)csc2c1=O)Nc1cc(F)ccc1F | 967 |
| CCC1CN(C(=O)Nc2ccccc2)c2ccccc2O1 (stereo not given) | 1020 |
| COc1c(C(=O)NC(C)C)sc2cccc(F)c12 | 968 |
| COc1cccc(CNC(=O)CCNc2cnc3cnccn23)c1 | 585 |
| Cc1cccc(-c2noc(Cc3nc(-c4ccc(F)cc4)cs3)n2)c1 | 1260 |
| COCc1noc([C@@H]2CN(Cc3ccc(Br)o3)C[C@H]2C(N)=O)n1 | 565 |
| CC(=O)N(C1CC1)C1CCOC2(CCN(C(=O)c3sc(C)nc3C)CC2)C1 (stereo not given) | 643 |
| CSc1cccc(NC(=O)NCC(c2cccnc2)c2c[nH]c3ccccc23)c1 (stereo not given) | 677 |
| COc1ccc(NC(=O)N(C)CC2CCOCC2)cc1Cl | 712 |
| CCOC(=O)c1c(C)[nH]c(C(=O)N2CCCC(C(=O)NCc3ccc4c(c3)OCO4)C2)c1C (stereo not given) | 770 |
| Cc1cc(C(=O)Nc2ccc(CC(=O)NCc3cccs3)cc2)c(C)o1 | 762 |
| O=C(Cc1ccccc1)Nc1nnc(CCSCCc2nnc(NC(=O)Cc3ccccc3)s2)s1 | 933 |
| O=C(CN1C(=O)C2CCCCN2c2ccc(S(=O)(=O)N3CCCC3)cc21)NC1CCCC1 (stereo not given) | 761 |
| CN1C(=O)[C@H]2CN(Cc3ccc(F)c(F)c3)C[C@H]2C1=O | 590 |

Next, values leading:

| RP-LC retention time [s] | SMILES |
| --- | --- |
| 629 | Cc1ccc(CN2CCC(CNC(=O)c3c(C)oc4nc(C)nc(N5CCOCC5)c34)CC2)cc1 |
| 843 | Cc1ccc(S(=O)(=O)N2CCC(C(=O)NCC(=O)N3CCCc4ccccc43)CC2)cc1 |
| 648 | Cc1ccn2c(NC(=O)C(C)(C)C)c(-c3ccc(F)cc3)nc2c1 |
| 711 | COc1cc(-c2nc3ncccn3c2Nc2ccc(C(C)C)cc2)ccc1O |
| 989 | Cc1cc(NC(=O)C2CCCN(c3nccnc3Oc3ccccc3)C2)ccc1Br (stereo not given) |
| 726 | CN1C(=O)c2cccnc2Sc2cc(C(=O)NC3CCCC3)ccc21 |
| 593 | Cc1cc(C)c2nc(C)cc(C(=O)N3CCN(c4ccccn4)CC3)c2c1 |
| 599 | Cc1nccn1C1CN(C(=O)C(C)Oc2ccccc2)C1 (stereo not given) |
| 931 | COC(=O)c1cccc(C(=O)Nc2cc(C)cc(C)c2)n1 |
| 863 | O=C(CN1C(=O)C2CCCCN2c2ccc(C(=O)N3CCCC3)cc21)NCc1ccc(F)cc1Cl (stereo not given) |
| 614 | Cc1ccnc(N2CCCC(C(=O)NCCN3CCN(c4ccccc4F)CC3)C2)n1 (stereo not given) |
| 1020 | C[C@H]1CN(C(=O)Cc2ccccc2F)C[C@@H]1c1nc(-c2ccccc2)no1 |
| 961 | COc1ccc(C2CCCN2C(=O)c2cc(-c3ccco3)on2)cc1 (stereo not given) |
| 897 | CCC1=NS(=O)(=O)c2cccnc2N1c1ccc(F)c(C)c1 |
| 1000 | Cc1ccc(C)c(N2CCN(c3ccnc(SCC(=O)Nc4cccc(C)c4C)n3)CC2)c1 |
| 912 | Cc1ccc(NC(=O)Nc2cccn3nc(C4CC4)nc23)cc1 |
| 671 | Cn1cc(-c2ccncc2)cc1C(=O)N1CCN(c2ccccc2Cl)CC1 |
| 942 | O=C(c1csc(N2CCN(c3ccc(Cl)cc3)CC2)n1)N1CCOCC1 |
| 692 | O=C(NC(Cc1ccccc1)C(=O)N1CCN(c2ccccn2)CC1)c1ccc(Cl)cc1 (stereo not given) |
| 885 | COC(=O)c1ccc2c(=O)n(-c3ccc4c(c3)OCO4)c(N3CCCC3)nc2c1 |
| 810 | CCn1c(=O)c2c(cc(C)n2C)n(CC(=O)Nc2cc(Cl)ccc2C)c1=O |
| 855 | O=C(Nc1nc2c(s1)CN(S(=O)(=O)C1CC1)CC2)c1cnn(-c2ccccc2)n1 |

| RP-LC retention time [s] | SMILES |
| --- | --- |
| 1420 | Cc1ccc(Cl)cc1N1CCN(c2ccc3cc(S(=O)(=O)N4CCCCC4C)ccc3n2)CC1 (stereo not given) |
| 716 | CCCNC(=O)C1CCCN(c2nc3ncn(CC(=O)Nc4cc(F)ccc4F)c(=O)c3s2)C1 (stereo not given) |
| 704 | COc1ccc(-c2cc(C(=O)N3CCOCC3)nn2C2CCS(=O)(=O)C2)cc1 (stereo not given) |
| 947 | CC1CCN(c2nc(-c3ccc(Cl)cc3)nc3ccccc23)CC1 |
| 595 | Cc1cc(C(=O)Nc2nc3c(s2)CN(C(=O)c2cccn(C)c2=O)CC3)no1 |
| 935 | Cc1cc(C)cc(OCCNS(=O)(=O)c2cccs2)c1 |
| 998 | Cc1ccc2c(c1)N(S(C)(=O)=O)CCC(C(=O)Nc1ccc(F)c(Cl)c1)O2 (stereo not given) |
| 691 | Cc1cc(C(=O)N2CCC(N3C(=O)C4(CCCC4)C3c3scnc3C)CC2)n(C)n1 (stereo not given) |
| 946 | Cc1ccc(-n2c(N3CCCC(C(=O)NCc4ccccc4Cl)C3)nc3ccsc3c2=O)cc1 (stereo not given) |
| 827 | Cc1nn(CCC(=O)Nc2ccccc2Cl)c(=O)c2nn(-c3ccccc3)c(C)c12 |
| 1160 | COc1ccc(-n2c(=O)c(C(=O)NCC(C)C)c(O)c3cccnc32)cc1 |
| 811 | O=C(Nc1c(F)cccc1F)N1CCc2nc(-c3ccccc3)ncc2C1 |
| 599 | O=C(NCc1ccccn1)C1CCN(c2nc3ccc(-c4cncnc4)nc3s2)CC1 |
| 1270 | Cc1ccc(-c2coc(-c3ccc(NC(=O)c4cccs4)cc3)n2)c(C)c1 |
| 880 | O=C(c1cc2ccccc2o1)N1CCC(CNS(=O)(=O)Cc2ccccc2Cl)CC1 |
| 830 | Cc1cccc(NC(=O)C2CCN(S(=O)(=O)c3ccc4c(c3)sc(=O)n4C)CC2)c1C |
| 961 | Cc1ccc(C)c(S(=O)(=O)NCc2ccc(C(=O)N3CCCCC3C)cc2)c1 (stereo not given) |
| 596 | Cc1ccc(-n2c(=O)n(CC(=O)NCCN3CCOCC3)c3cccnc32)cc1 |
| 790 | CCn1ccc(C(=O)N2CCCN(C3=NS(=O)(=O)C(c4ccc(C)cc4)=C3C)CC2)n1 |
| 614 | Cc1ccc(NC(=O)Nc2ccc3nc(N4CCN(C)CC4)cc(C)c3c2)cc1F |
| 643 | Cc1nnc(SCC(=O)NCc2ccccc2)c2nn(-c3ccccc3)c(C)c12 |
